The target of series [1] is T1, Aromatase (Homo sapiens, UniProt P11511).
T1 sequence (P11511 whole entry): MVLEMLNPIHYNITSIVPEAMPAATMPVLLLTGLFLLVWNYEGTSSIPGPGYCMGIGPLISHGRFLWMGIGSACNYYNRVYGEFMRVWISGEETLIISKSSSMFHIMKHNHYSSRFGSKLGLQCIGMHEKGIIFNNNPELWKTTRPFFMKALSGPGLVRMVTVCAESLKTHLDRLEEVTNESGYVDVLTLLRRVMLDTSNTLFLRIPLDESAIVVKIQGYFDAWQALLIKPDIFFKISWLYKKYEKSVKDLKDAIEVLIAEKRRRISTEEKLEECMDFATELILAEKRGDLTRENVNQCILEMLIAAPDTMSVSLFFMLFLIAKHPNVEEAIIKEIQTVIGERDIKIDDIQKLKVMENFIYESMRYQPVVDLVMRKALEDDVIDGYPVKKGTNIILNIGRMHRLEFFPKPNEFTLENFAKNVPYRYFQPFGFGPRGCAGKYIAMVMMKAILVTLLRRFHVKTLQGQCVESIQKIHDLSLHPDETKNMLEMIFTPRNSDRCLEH
The series is described as follows: Inhibition of human placental microsome aromatase at 2 uM using [1beta3H]-androstenedione as substrate measured after 15 mins in presence of NADPH by liquid scintillation counting method relative to control. The series is classed as microsomes, Placenta. Particulars: 0.25 h.

Series [2] concerns the target T1, Aromatase. The series is described as follows: Inhibition of […] aromatase expressed in human MCF7 cells at 10 uM using [1beta3H]-androstenedione as substrate measured after 1 hr in presence of progesterone relative to control.
Series [3] deals with T1, Aromatase. Description: Ratio of Km to Ki for human placental microsome aromatase using varying levels of [1beta3H]-androstenedione as substrate measured after 5 mins in presence of NADPH by Dixon-plot analysis. More on the design: species or system Placenta. The following applies: microsomes.
Series [4] concerns the target T1, Aromatase. Description: Competitive irreversible inhibition of human placental microsome aromatase using varying levels of [1beta3H]-androstenedione as substrate measured after 5 mins in presence of NADPH by Lineweaver-burk plot analysis. On the set-up: species or system Placenta. The following applies: microsomes.
Series [5] concerns the target T1, Aromatase. Description: Inhibition of human placental microsome aromatase using [1beta3H]-androstenedione as substrate measured after 15 mins in presence of NADPH by liquid scintillation counting method. The following applies: for inhibition (INH): human, microsomes, 0.25 h. It counts as microsomes, Placenta.
The test system of a further series is MCF7. The series is described as follows: Induction of crystal formation in human MCF7 cells transfected with human placental microsome aromatase at 10 uM measured after 1 hr. It counts as functional, cell-based.
The target of series [6] is T1, Aromatase. Description: Competitive reversible inhibition of human placental microsome aromatase using varying levels of [1beta3H]-androstenedione as substrate measured after 5 mins in presence of NADPH by Dixon-plot analysis. The series is classed as microsomes, Placenta. The following applies: read-out: Ki(app).
The target of series [7] is T1, Aromatase. Description: Competitive irreversible inhibition of human placental microsome aromatase using varying levels of [1beta3H]-androstenedione as substrate measured after 5 mins in presence of NADPH by Dixon-plot analysis. It counts as microsomes, Placenta. The following applies: read-out: Ki(app).
Series [8] has as its target T1, Aromatase. Description: Competitive reversible inhibition of human placental microsome aromatase using varying levels of [1beta3H]-androstenedione as substrate measured after 5 mins in presence of NADPH by Lineweaver-burk plot analysis. The following applies: microsomes. On the set-up: species or system Placenta.
Series [9] deals with T1, Aromatase. The series is described as follows: Competitive reversible inhibition of human placental microsome aromatase assessed as substrate Vmax per ug protein using varying levels of [1beta3H]-androstenedione as substrate measured after 5 mins in presence of NADPH by Dixon-plot analysis. More on the design: species or system Placenta. Particulars: microsomes.

The source made the active and inactive calls. The calls are words filed in the database; no cut-off is given here.

By inhibition is commonly meant the share of the control response that was lost under treatment. As to `C[C@@H]1C[C@@]23O[C@@H]2CCC[C@]3(C)[C@H]2CC[C@]3(C)C(=O)CC[C@H]3[C@H]12`, the inhibition at 2 µM on Aromatase [1] is 64.9%.
Usually IC50 stands for the concentration that gives 50% inhibition. Consider `C=CC[C@H]1C[C@@H]2[C@H](CC[C@]3(C)C(=O)CC[C@@H]23)[C@@]2(C)C=CC(=O)C=C12`, for which the inhibition at 10 µM on Aromatase [2] is 99.2%. Also, the Ratio on Aromatase [3] was 2.81. For the same compound, the “inhibition (INH)” value on Aromatase [4] is “Active”; at Aromatase [5], “Dose-dependent effect”. Moreover, the inhibition at 2 µM at Aromatase [1] worked out at 97.6%. Also, the half-inhibitory concentration (IC50) at Aromatase [5] came out at 55 nM.
For the compound `C[C@]12CCC(=O)C(O)=C1CC[C@@H]1[C@@H]2CC[C@]2(C)C(=O)CC[C@@H]12` [FORMESTANE], the inhibition at 10 µM at Aromatase [2] is 97.1%. On Aromatase [1], the inhibition at 2 µM stood at 99.2%.
Turning to `C[C@@H]1C[C@@H]2[C@H]3O[C@H]3CC[C@]2(C)[C@H]2CC[C@]3(C)C(=O)CC[C@H]3[C@H]12`, on Aromatase [1], the inhibition at 2 µM is 13.7%.
For the compound `C=CC[C@@H]1CC2=CCCC[C@]2(C)[C@H]2CC[C@]3(C)C(=O)CC[C@H]3[C@H]12`, the inhibition at 10 µM on Aromatase [2] was found to be 74.7%.
On to `C[C@H]1C[C@H]2[C@@H]3CCC(=O)[C@@]3(C)CC[C@@H]2[C@@]2(C)CCC[C@@H]3O[C@]312`, for which the inhibition at 2 µM on Aromatase [1] is 76.2%.
Turning to `C[C@]12CCC(=O)C=C1C[C@@H](O)[C@@H]1[C@@H]2CC[C@]2(C)C(=O)CC[C@@H]12`, on Aromatase [1], the inhibition at 2 µM worked out at 49.8%.
Turning to `C[C@H]1C[C@@H]2[C@H](CC[C@]3(C)C(=O)CC[C@@H]23)[C@@]2(C)CCC=C[C@H]12`, the inhibition at 10 µM at Aromatase [2] turned out to be 88.7%. Moreover, the inhibition at 2 µM on Aromatase [1] was 93.5%. In addition, the IC50 at Aromatase [5] was 560 nM.
On to `C[C@H]1C[C@@H]2[C@H](CC[C@]3(C)C(=O)CC[C@@H]23)[C@@]2(C)CCCC=C12`, for which the inhibition at 2 µM at Aromatase [1] was 96.7%. Moreover, in the series on MCF7, the result was Active. Besides, the IC50 at Aromatase [5] was 170 nM.
On to `C[C@H]1C[C@H]2[C@@H]3CCC(=O)[C@@]3(C)CC[C@@H]2[C@@]2(C)CCC[C@H]3O[C@]132`, for which, on Aromatase [1], the inhibition at 2 µM worked out at 58.7%.
As to `C[C@]12CCC(=O)C=C1[C@@H](O)C[C@@H]1[C@@H]2CC[C@]2(C)C(=O)CC[C@@H]12`, the inhibition at 10 µM on Aromatase [2] is 88.4%. Further, the inhibition at 2 µM on Aromatase [1] stood at 90.7%. Further, the IC50 at Aromatase [5] was 880 nM.
As usually defined, the Vmax is the rate approached at saturating substrate. With `C[C@H]1C[C@@H]2[C@H](CC[C@]3(C)C(=O)CC[C@@H]23)[C@@]2(C)CCC(=O)C=C12`, the Ki amounted to 25 nM at Aromatase [6] and 22.5 nM at Aromatase [7]. In addition, at Aromatase [2], the inhibition at 10 µM is 98.6%. Moreover, the Ratio at Aromatase [3] turned out to be 2.53. For the same compound, the “inhibition (INH)” value is reported as “Active” at Aromatase [8] and “Dose-dependent effect” on Aromatase [5]. The inhibition at 2 µM on Aromatase [1] worked out at 98.7%. Moreover, the Vmax on Aromatase [9] was determined as 0.0191 nmol/min. In addition, the IC50 on Aromatase [5] was determined as 60 nM.
As for `C[C@]12CCC(=O)C=C1[C@H](O)C[C@@H]1[C@@H]2CC[C@]2(C)C(=O)CC[C@@H]12`, the inhibition at 10 µM at Aromatase [2] amounted to 88.2%. Moreover, the inhibition at 2 µM on Aromatase [1] amounted to 88.6%. Moreover, at Aromatase [5], the IC50 was 840 nM.
As to `C=CC[C@H]1C[C@@H]2[C@H](CC[C@]3(C)C(=O)CC[C@@H]23)[C@@]2(C)CCCC=C12`, at Aromatase [2], the inhibition at 10 µM was 84.1%. In addition, the inhibition at 2 µM on Aromatase [1] turned out to be 92.4%. The IC50 at Aromatase [5] was determined as 210 nM.
Take `C=CC[C@H]1C[C@@H]2[C@H](CC[C@]3(C)C(=O)CC[C@@H]23)[C@@]2(C)CCC(=O)C=C12`: the inhibition at 10 µM at Aromatase [2] is 96.5%. In addition, the inhibition at 2 µM on Aromatase [1] came out at 97.2%. For the same compound, on Aromatase [5], the IC50 is 105 nM and the “inhibition (INH)” value is “Dose-dependent effect”.
In the case of `C=CC[C@@H]1CC2=CC(=O)CC[C@]2(C)[C@H]2CC[C@]3(C)C(=O)CC[C@H]3[C@H]12`, at Aromatase [2], the inhibition at 10 µM was found to be 92.6%.
For `C=CC[C@@H]1CC2=CC(=O)C=C[C@]2(C)[C@H]2CC[C@]3(C)C(=O)CC[C@H]3[C@H]12`, at Aromatase [2], the inhibition at 10 µM stood at 96.3%.
As to `C=CC[C@@H]1CC2=C(O)C(=O)CC[C@]2(C)[C@H]2CC[C@]3(C)C(=O)CC[C@H]3[C@H]12`, at Aromatase [1], the inhibition at 2 µM is 91.8%. Also, the outcome with MCF7 was Active. Further, at Aromatase [5], the IC50 stood at 110 nM and the “inhibition (INH)” value is “Dose-dependent effect”.
Consider `C[C@@H]1CC2=CCCC[C@]2(C)[C@H]2CC[C@]3(C)C(=O)CC[C@H]3[C@H]12`, for which, on Aromatase [2], the inhibition at 10 µM was 89.5%. Moreover, on Aromatase [1], the inhibition at 2 µM amounted to 97.4%. Moreover, the IC50 at Aromatase [5] was determined as 405 nM.
For `C[C@@H]1CC2=CC(=O)CC[C@]2(C)[C@H]2CC[C@]3(C)C(=O)CC[C@H]3[C@H]12`, the inhibition at 10 µM on Aromatase [2] was 90.8%. The inhibition at 2 µM at Aromatase [1] was determined as 94.3%. At Aromatase [5], the IC50 came to 270 nM.
As for `C[C@H]1C[C@@H]2[C@H](CC[C@]3(C)C(=O)CC[C@@H]23)[C@@]2(C)CC[C@H]3O[C@H]3[C@H]12`, at Aromatase [2], the inhibition at 10 µM amounted to 84.2%. Also, the inhibition at 2 µM at Aromatase [1] was 96.7%. Further, the IC50 on Aromatase [5] was determined as 175 nM.
For `C=CC[C@H]1C[C@@H]2[C@H](CC[C@]3(C)C(=O)CC[C@@H]23)[C@@]2(C)CCC(=O)C(O)=C12`, the inhibition at 10 µM at Aromatase [2] turned out to be 80.7%. The inhibition at 2 µM on Aromatase [1] is 90.1%. Further, at Aromatase [5], the IC50 came out at 520 nM.

Values taken from ChEMBL document CHEMBL4390669, “C-6α- vs C-7α-Substituted Steroidal Aromatase Inhibitors: Which Is Better? Synthesis, Biochemical Evaluation, Docking Studies, and Structure-Activity Relationships” (J Med Chem, 2019).
